These are literature values, as cited in EP4752146A1, “NOVEL CA[…] CARRIER-DRUG CONJUGATE COMPRISING SAME” (priority 2023, dated 2025).

The series has as its system cancer cells. As to conditions: background.

With `CCc1c2c(nc3ccc(O)cc13)-c1cc3c(c(=O)n1C2)COC(=O)[C@]3(O)CC` [SN-38], under “various cell lines”, the IC50 entry is reported as “nanomolar range”.
As for `CC[C@@]1(O)C(=O)OCc2c1cc1n(c2=O)Cc2c-1nc1cc(F)c(C)c3c1c2[C@@H](NC(=O)CO)CC3` [DXd], the “activity in cancer cells relative to SN-38” value (higher than SN-38) is “approximately 10 fold”.
